Source: PubChem BioAssay (NCI)
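Cultured in 96-well plates, cells were exposed to test compound for 48 hours across five concentrations. Definition used: TGI = concentration required for complete inhibition of growth.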

Tests used:
Assay in all cases: inhibition of tumour cell growth, NCI panel, 48 h
[1] = tested on: TK-10 renal
[2] = tested on: IGROV1 ovarian
[3] = tested on: NCI-H23 lung
[4] = tested on: UACC-62 melanoma
[5] = tested on: U251 CNS
[6] = tested on: KM20L2 colon
[7] = tested on: OVCAR-5 ovarian
[8] = tested on: OVCAR-3 ovarian
[9] = tested on: SNB-75 CNS
[10] = tested on: UACC-257 melanoma
[11] = tested on: HCT-116 colon
[12] = tested on: SR leukemia
[13] = tested on: XF 498 CNS
[14] = tested on: DMS 273 small cell lung
[15] = tested on: HT29 colon
[16] = tested on: OVCAR-8 ovarian
[17] = tested on: EKVX NSCLC
[18] = tested on: SF-295 CNS
[19] = tested on: SK-OV-3 ovarian
[20] = tested on: SF-539 CNS
[21] = tested on: LOX IMVI melanoma
[22] = tested on: MALME-3M melanoma
[23] = tested on: SK-MEL-28 melanoma
[24] = tested on: KM12 colon
[25] = tested on: RXF-631 renal
[26] = tested on: SN12C renal
[27] = tested on: 786-0 renal
[28] = tested on: HCC-2998 colon
[29] = tested on: SF-268 CNS
[30] = tested on: CCRF-CEM leukemia
[31] = tested on: COLO 205 colon
[32] = tested on: HOP-62 NSCLC
[33] = tested on: SNB-19 CNS
[34] = tested on: M19-MEL melanoma
[35] = tested on: A549 NSCLC
[36] = tested on: DMS 114 small cell lung
[37] = tested on: ACHN renal
[38] = tested on: A498 renal
[39] = tested on: HCT-15 colon
[40] = tested on: NCI-H226 lung
[41] = tested on: SK-MEL-5 melanoma
[42] = tested on: NCI-H460 lung
[43] = tested on: UO-31 renal
[44] = tested on: LXFL 529 NSCLC
[45] = tested on: OVCAR-4 ovarian
[46] = tested on: RXF 393 renal
[47] = tested on: HL-60(TB) leukemia
[48] = tested on: RPMI-8226 leukemia
[49] = tested on: SW-620 colon
[50] = tested on: CAKI-1 renal
[51] = tested on: HOP-18 NSCLC
[52] = tested on: K-562 leukemia
[53] = tested on: HOP-92 NSCLC
[54] = tested on: M14 melanoma
[55] = tested on: DLD-1 colon
[56] = tested on: MOLT-4 leukemia
[57] = tested on: SNB-78 CNS
[58] = tested on: SK-MEL-2 melanoma
[59] = tested on: NCI-H522 lung

For `CCCC(=O)c1c(NOC2OCC(OC(C)=O)C(OC(C)=O)C2OC(C)=O)nc(OC)n(C)c1=O` (configuration not stated), the TGI [1] was over 100 µM, the TGI [2] was over 100 µM and the TGI [3] was over 100 µM. The TGI [4] was over 100 µM, the TGI [5] was over 100 µM and the TGI [6] was over 100 µM. For the same compound, the TGI [7] was over 100 µM, the TGI [8] was over 100 µM and the TGI [9] was over 100 µM. The TGI [10] was over 100 µM, the TGI [11] was over 100 µM and the TGI [12] was over 100 µM. For the same compound, the TGI [13] was over 100 µM, the TGI [14] was over 100 µM and the TGI [15] was over 100 µM. The TGI [16] was over 100 µM, the TGI [17] was over 100 µM and the TGI [18] was over 100 µM. For the same compound, the TGI [19] was over 100 µM, the TGI [20] was over 100 µM and the TGI [21] was over 100 µM. It also gave a TGI [22] of over 100 µM, a TGI [23] of over 100 µM and a TGI [24] of over 100 µM. The TGI [25] was over 100 µM, the TGI [26] was over 100 µM and the TGI [27] was over 100 µM. For the same compound, the TGI [28] was over 100 µM, the TGI [29] was over 100 µM and the TGI [30] was 19.1 µM. It also gave a TGI [31] of over 100 µM, a TGI [32] of over 100 µM and a TGI [33] of over 100 µM. It also gave a TGI [34] of over 100 µM, a TGI [35] of over 100 µM and a TGI [36] of over 100 µM. It also gave a TGI [37] of over 100 µM, a TGI [38] of over 100 µM and a TGI [39] of over 100 µM. The TGI [40] was over 100 µM, the TGI [41] was over 100 µM and the TGI [42] was over 100 µM. For the same compound, the TGI [43] was over 100 µM, the TGI [44] was over 100 µM and the TGI [45] was over 100 µM. It also gave a TGI [46] of over 100 µM, a TGI [47] of 3.09 µM and a TGI [48] of over 100 µM. It also gave a TGI [49] of over 100 µM, a TGI [50] of over 100 µM and a TGI [51] of over 100 µM. For the same compound, the TGI [52] was 36 µM, the TGI [53] was over 100 µM and the TGI [54] was over 100 µM. For the same compound, the TGI [55] was over 100 µM and the TGI [56] was over 100 µM.
In the case of `O=[N+]([O-])c1ccc(-c2noc(-c3ccccc3)c2C2=NCCN2)cc1`, the TGI [2] is reported as over 100 µM, the TGI [4] is reported as over 100 µM and the TGI [5] is reported as over 100 µM. The TGI [6] was over 100 µM, the TGI [7] was over 100 µM and the TGI [8] was 90.8 µM. For the same compound, the TGI [9] was over 100 µM, the TGI [10] was over 100 µM and the TGI [11] was over 100 µM. It also gave a TGI [12] of over 100 µM, a TGI [13] of over 100 µM and a TGI [57] of over 100 µM. The TGI [15] was over 100 µM, the TGI [16] was over 100 µM and the TGI [17] was over 100 µM. For the same compound, the TGI [18] was over 100 µM, the TGI [20] was over 100 µM and the TGI [21] was over 100 µM. The TGI [22] was over 100 µM, the TGI [23] was over 100 µM and the TGI [58] was over 100 µM. The TGI [24] was over 100 µM, the TGI [25] was over 100 µM and the TGI [26] was over 100 µM. For the same compound, the TGI [27] was over 100 µM, the TGI [28] was over 100 µM and the TGI [29] was over 100 µM. The TGI [30] was over 100 µM, the TGI [59] was over 100 µM and the TGI [31] was over 100 µM. The TGI [32] was over 100 µM, the TGI [33] was over 100 µM and the TGI [34] was over 100 µM. The TGI [35] was over 100 µM, the TGI [37] was over 100 µM and the TGI [39] was over 100 µM. The TGI [40] was over 100 µM, the TGI [41] was over 100 µM and the TGI [42] was over 100 µM. For the same compound, the TGI [43] was over 100 µM, the TGI [44] was over 100 µM and the TGI [45] was over 100 µM. The TGI [46] was over 100 µM, the TGI [47] was over 100 µM and the TGI [48] was over 100 µM. It also gave a TGI [49] of over 100 µM, a TGI [50] of over 100 µM and a TGI [51] of over 100 µM. The TGI [52] was over 100 µM, the TGI [54] was over 100 µM and the TGI [55] was over 100 µM. It also gave a TGI [56] of over 100 µM.
Work on `CC(=O)OCC1(C)C(OC(C)=O)CCC2(C)C(CC(OC(C)=O)C3=CCOC3=O)C(O)(CO)CCC12` (configuration not stated) yielded a TGI [1] of over 100 µM, a TGI [2] of over 100 µM and a TGI [3] of over 100 µM. For the same compound, the TGI [4] was over 100 µM, the TGI [5] was over 100 µM and the TGI [6] was over 100 µM. The TGI [7] was over 100 µM, the TGI [8] was over 100 µM and the TGI [9] was over 100 µM. The TGI [10] was over 100 µM, the TGI [11] was over 100 µM and the TGI [13] was over 100 µM. For the same compound, the TGI [14] was over 100 µM, the TGI [57] was over 100 µM and the TGI [15] was over 100 µM. The TGI [16] was over 100 µM, the TGI [17] was over 100 µM and the TGI [18] was over 100 µM. The TGI [19] was over 100 µM, the TGI [20] was over 100 µM and the TGI [21] was over 100 µM. The TGI [22] was over 100 µM, the TGI [23] was over 100 µM and the TGI [24] was over 100 µM. For the same compound, the TGI [25] was over 100 µM, the TGI [26] was over 100 µM and the TGI [27] was over 100 µM. For the same compound, the TGI [28] was over 100 µM, the TGI [29] was over 100 µM and the TGI [30] was over 100 µM. For the same compound, the TGI [59] was over 100 µM, the TGI [31] was over 100 µM and the TGI [32] was over 100 µM. The TGI [33] was over 100 µM, the TGI [34] was over 100 µM and the TGI [35] was over 100 µM. For the same compound, the TGI [37] was over 100 µM, the TGI [38] was over 100 µM and the TGI [40] was over 100 µM. The TGI [41] was over 100 µM, the TGI [42] was over 100 µM and the TGI [43] was over 100 µM. The TGI [44] was over 100 µM, the TGI [45] was over 100 µM and the TGI [46] was over 100 µM. The TGI [47] was over 100 µM, the TGI [48] was over 100 µM and the TGI [49] was over 100 µM. It also gave a TGI [50] of over 100 µM, a TGI [51] of over 100 µM and a TGI [52] of over 100 µM. For the same compound, the TGI [53] was over 100 µM, the TGI [54] was over 100 µM and the TGI [55] was over 100 µM.
